Source: US20100034903A1, “SHINYLEAF YELLOWHORN EXTRACT, METHODS FOR EXTRACTION AND USES THEREOF” (priority 2006, published 2010)

Legend:
dementia rat model = test: Avoidance conditioned reflex of the dementia rat model with destructed cholinergic neuron and Meynert basal ganglia; assay type: in vivo; conditions: 0.2 g/kg, gavage
Text: The animal model of senile dementia is established pursuant to the method disclosed in “Experimental Alzheimer's Disease Animal Model with Destructed Cholinergic Neuron” (Pharmacological Experimental Methodology, Third Edition, […]). The kainic acid is a receptor agonist for the central exciting neurotransmitter glutamate, which has been widely used as a tool drug to establish the neurotoxicity model by the international community. Administration mode: gavage administration. The Piracetam-NEGPF [piracetam, […] acetamide, amide pyrrole ring (ketone)] is a brain metabolism nootropics that can protect and repair cranial nerve cells, promote the transformation of ADP into ATP in the brain and the synthesis of acetylcholine and prevent against the brain function injury caused by the physical and chemical factors, and is used in clinic for the treatment of the brain function disorder due to aging, cerebral vascular accident, traumatic brain injury, and CO poisoning.

water-load mice = test: Urination frequency of water-load mice; assay type: in vivo; conditions: imipramine 0.01 g/kg*d × 10, gavage
Text: The experimental animal strains used herein are the SPF KM mice and Wistar rats. Each rat or mouse receives gavage drug administration. Shinyleaf yellowhorn extract is the refined extract from Refining Example IV, in the form of capsules. The control drug is imipramine, which has a strong anti-depression action and a weak atropine-like action, and is often used for treatment of the depression and children enuresis. The experimental method is calculating the urination frequency of mice based on the colorable reaction taking place when the dried potassium iodide and starch are mixed with the urine.

[1] = test system: excised smooth muscle of bladder of rats; test: Relaxation of excised smooth muscle of bladder of rats; assay type: cell-based; conditions: rat bladder smooth muscle strips; 12 experiments
Text: The experimental animal strain used herein is the SPF Wistar rats. The experiment process is as follows: the rat bladder is surgically excised to prepare the strips of smooth muscle; place the smooth muscle in the thermostat nutrient solution, and then added with Shinyleaf yellowhorn extract (the refined extract from Refining Example IV, in the form of capsules) and the imipramine respectively, under the oxygen supply conditions, to observe the changes in smooth muscle.

[2] = test system: external bladder sphincter of the rabbit; test: Bioelectricity of the extracellular electrode of the external bladder sphincter of the rabbit; assay type: in vivo; conditions: 0.4 mg/kg, gavage
Text: Experimental method: surgically implant indwelling electrode and record the changes of the external bladder sphincter of the rabbit with a physiological recorder. Administration mode: gavage administration. The adrenomimetic drug Midodrine is a selective α1 adrenoceptor agonist, commonly used for treating of stress incontinence clinically.

[3] = test system: mouse sleeping model by sodium pentobarbital; test: Sleeping hours of the mouse (sodium pentobarbital sleep model); assay type: in vivo; conditions: mice, 0.02 g/kg gavage one hour prior to sodium pentobarbital
Text: Establish the animal model of sleeping of the mouse by an intraperitoneal injection of sodium pentobarbital. Administer drug by gavage administration one hour prior to the injection, so as to observe the recovery time for the righting reflex of the mouse. Administration mode: gavage administration. The telucidone (meclofenoxate, or centrofenoxine) has an exciting action on central nerve and commonly used for the clinical treatment of traumatic unconscious disturbance and children enuresis.

SMILES: NC(=O)CN1CCCC1=O [Piracetam-NEGPF, piracetam]
- Latency (dementia rat model; 72 h post stopping of training): 4.6 ± 0.7 s
- Positive rate (dementia rat model; 72 h post stopping of training): 58.2 ± 7.4 %
- Latency (dementia rat model; The fifth day): 2.6 ± 0.6 s
- Positive rate (dementia rat model; The fifth day): 71.05 ± 8.2 %
- Latency (dementia rat model; The first day): 7.1 ± 3.3 s
- Positive rate (dementia rat model; The first day): 30.5 ± 12.7%
- Latency (dementia rat model; The third day): 4.4 ± 1.0 s
- Positive rate (dementia rat model; The third day): 57.6 ± 8.0 %

SMILES: CN(C)CCCN1c2ccccc2CCc2ccccc21 [Imipramine, imipramine]
- Urination frequency (water-load mice; 0.5 h): 0.9 ± 0.7 times/each
- Urination frequency (water-load mice; 1.0 h): 2.9 ± 1.3 times/each
- Urination frequency (water-load mice; 2.0 h): 2.6 ± 1.5 times/each
- Urination frequency (water-load mice; 3.0 h): 1.3 ± 0.8 times/each
- Concentration of solution as smooth muscle shows complete relaxation [1]: 0.15 mg/mL

SMILES: COc1ccc(OC)c(C(O)CNC(=O)CN)c1 (centres unmarked) [Midodrine]
- Frequency [2]: 35.4 ± 11.6 times/min
- Time duration [2]: 18.7 ± 10.3 min
- Wave amplitude [2]: 14.9 ± 6.7 mv

SMILES: CN(C)CCOC(=O)COc1ccc(Cl)cc1 [Telucidone, meclofenoxate]
- Hour of sleep [3]: 61.2 ± 10.7 min
